What is called IC50 is the point on the concentration scale where inhibition reaches its midpoint.

Holding throughout (assay type): cell membranes
Test [1] deals with Sodium-dependent serotonin transporter (Homo sapiens, UniProt P31645). Kind of test: Radioligand Binding Assay: Compounds were dissolved in 100% DMSO at a concentration 100 times the desired highest assay concentration, serially diluted 1:3 in 100% DMSO, and 0.4 ul/well of each solution was dispensed to a Nunc polypropylene, round bottom, 384-well plate. […] 20 ul/well of a 2x membrane preparation (15 ug/ml in 50 mM Tris-Cl, pH 7.5, 120 mM NaCl, 5 mM KCl) and 20 ul/well of a 2x radioligand solution (520 pM [125I]RTI-55 in 50 mM Tris-Cl, pH 7.5, 120 mM NaCl, 5 mM KCl) were added to each well and the reaction incubated for 1 hour at room temperature. The contents of the assay plate were then transferred to a Millipore MultiscreenHTS GF/B filter plate which was pretreated with 0.5% PEI for at least one hour. The plate was vacuum filtered and washed with 7 washes of 100 uA/well 50 mM Tris-Cl, pH 7.5, 120 mM NaCl, 5 mM KCl chilled to 4 C.
Sequence of Sodium-dependent serotonin transporter (P31645 whole entry): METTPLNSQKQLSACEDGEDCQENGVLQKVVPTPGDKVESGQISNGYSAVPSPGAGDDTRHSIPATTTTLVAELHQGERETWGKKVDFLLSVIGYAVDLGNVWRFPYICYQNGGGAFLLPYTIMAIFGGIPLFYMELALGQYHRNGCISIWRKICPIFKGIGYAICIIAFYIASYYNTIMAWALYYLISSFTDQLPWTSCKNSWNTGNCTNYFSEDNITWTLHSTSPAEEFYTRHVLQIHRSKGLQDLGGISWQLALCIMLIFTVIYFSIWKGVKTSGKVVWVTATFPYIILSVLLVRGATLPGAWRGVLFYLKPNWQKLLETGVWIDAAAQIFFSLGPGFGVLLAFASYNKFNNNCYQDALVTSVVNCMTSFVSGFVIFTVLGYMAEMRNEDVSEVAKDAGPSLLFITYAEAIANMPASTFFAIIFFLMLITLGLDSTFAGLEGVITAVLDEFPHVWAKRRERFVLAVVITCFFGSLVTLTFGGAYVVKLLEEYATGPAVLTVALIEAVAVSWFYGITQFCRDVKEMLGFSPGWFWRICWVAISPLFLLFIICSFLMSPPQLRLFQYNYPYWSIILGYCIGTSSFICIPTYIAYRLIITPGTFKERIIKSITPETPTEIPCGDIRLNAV

For test [2], the target named is Sodium-dependent noradrenaline transporter (Homo sapiens, UniProt P23975). Kind of test: Radioligand Binding Assay: Compounds were dissolved in 100% DMSO at a concentration 100 times the desired highest assay concentration, serially diluted 1:3 in 100% DMSO, and 1.0 ul/well of each solution was dispensed to a Nunc polypropylene, round bottom, 384-well plate. […] 50 ul/well of a 2x membrane preparation (0.4 mg/ml in 50 mM Tris-Cl, pH 7.5, 120 mM NaCl, 5 mM KCl) and 50 ul/well of a 2x radioligand solution (4 nM [3H]nisoxetine in 50 mM Tris-Cl, pH 7.5, 120 mM NaCl, 5 mM KCl) were added to the well and the reaction incubated for 1 hour at room temperature. The contents of the assay plate were then transferred to a Millipore MultiscreenHTS GF/B filter plate which was pretreated with 0.5% PEI for at least one hour. The plate was vacuum filtered and washed with 7 washes of 100 ul/well 50 mM Tris-Cl, pH 7.5, 120 mM NaCl, 5 mM KCl chilled to 4 C.
Sequence of Sodium-dependent noradrenaline transporter (P23975 whole entry): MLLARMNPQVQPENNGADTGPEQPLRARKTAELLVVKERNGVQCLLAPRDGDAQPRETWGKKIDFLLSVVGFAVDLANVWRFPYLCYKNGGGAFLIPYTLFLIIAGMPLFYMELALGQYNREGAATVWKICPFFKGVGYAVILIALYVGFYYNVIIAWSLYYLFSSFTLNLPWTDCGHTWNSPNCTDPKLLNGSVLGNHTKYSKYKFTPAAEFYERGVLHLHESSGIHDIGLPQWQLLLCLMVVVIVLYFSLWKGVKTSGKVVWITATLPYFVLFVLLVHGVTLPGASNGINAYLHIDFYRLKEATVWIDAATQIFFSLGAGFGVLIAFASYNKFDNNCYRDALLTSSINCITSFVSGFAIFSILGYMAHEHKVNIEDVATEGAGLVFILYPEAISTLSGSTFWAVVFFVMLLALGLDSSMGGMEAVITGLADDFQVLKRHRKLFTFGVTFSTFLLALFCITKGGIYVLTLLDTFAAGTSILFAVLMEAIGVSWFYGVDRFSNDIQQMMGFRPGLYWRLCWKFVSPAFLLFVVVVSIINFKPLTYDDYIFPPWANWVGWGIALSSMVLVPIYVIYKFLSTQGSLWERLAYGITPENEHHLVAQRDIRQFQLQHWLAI

Test [3] concerns the target Sodium-dependent dopamine transporter (Homo sapiens, UniProt Q01959). As to the kind of experiment: Radioligand Binding Assay: Compounds were dissolved in 100% DMSO at a concentration 100 times the desired highest assay concentration, serially diluted 1:3 in 100% DMSO, and 0.4 ul/well of each solution was dispensed to a Nunc polypropylene, round bottom, 384-well plate. […] 20 ul/well of a 2x membrane preparation (12.5 ug/ml in 30 mM sodium phosphate buffer, pH 7.9 at 4 C.) and 20 ul/well of a 2x radioligand solution (250 pM [125I]RTI-55 in 30 mM sodium phosphate buffer, pH 7.9 at 4 C.) were added to the well and the reaction incubated for 1 hour at room temperature. The contents of the assay plate were then transferred to a Millipore MultiscreenHTS GF/B filter plate which was pretreated with 0.5% PEI for at least one hour. The plate was vacuum-filtered and washed with 7 washes of 100 ul/well 50 mM Tris-Cl, pH 7.5, 120 mM NaCl, 5 mM KCl chilled to 4 C.

Sequence of Sodium-dependent dopamine transporter (Q01959 whole entry): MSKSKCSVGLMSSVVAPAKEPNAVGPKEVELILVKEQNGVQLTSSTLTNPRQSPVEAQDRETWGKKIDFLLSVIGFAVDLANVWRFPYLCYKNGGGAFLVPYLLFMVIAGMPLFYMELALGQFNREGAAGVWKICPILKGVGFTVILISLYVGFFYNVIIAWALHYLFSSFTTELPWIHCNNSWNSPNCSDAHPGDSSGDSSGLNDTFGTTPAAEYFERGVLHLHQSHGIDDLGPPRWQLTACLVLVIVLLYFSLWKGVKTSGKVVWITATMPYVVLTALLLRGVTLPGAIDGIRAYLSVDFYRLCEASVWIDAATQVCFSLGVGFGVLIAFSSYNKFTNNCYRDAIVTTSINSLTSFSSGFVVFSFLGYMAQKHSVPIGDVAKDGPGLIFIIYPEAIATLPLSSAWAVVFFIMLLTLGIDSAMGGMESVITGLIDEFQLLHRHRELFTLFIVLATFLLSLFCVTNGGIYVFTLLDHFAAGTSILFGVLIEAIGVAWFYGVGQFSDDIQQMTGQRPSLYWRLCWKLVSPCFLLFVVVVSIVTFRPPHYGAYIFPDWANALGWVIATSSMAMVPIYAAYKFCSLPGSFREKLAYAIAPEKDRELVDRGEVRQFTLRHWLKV

In the case of `O=c1[nH]c2ccc(-c3ccc4c(c3)CN3CCC4(c4ccc(Cl)c(Cl)c4)CC3)cc2o1`, the results for the IC50 in test [1], in test [2] and in test [3] were 9.3 nM, 451 nM and 25.5 nM, respectively.
